These results are taken from publication PMC7247319, “The mitochondria-targeted peptide SS-31 binds lipid bilayers and modulates surface electrostatics as a key component of its mechanism of action” (The Journal of Biological Chemistry, 2020).

Where a SMILES comes first, the peptide text is derived from it. [ ]: non-standard residue; d: D form. Dmt = Cc1cc(O)cc(C)c1C[C@H](N)C(=O)O

In the experiment the test system is LUVs with 20% TOCL. In words: CG-5N assay of Ca2+ accumulation at model membrane interface. The following applies: peptide titrated into LUVs with 20% TOCL prebound with Ca2+. The text has this:
Figure 7. SS peptide effects on Ca^2+-membrane interactions and mitochondrial cation stress. A, profiles of surface potential decay (top) and ion distribution (bottom) based on GCS theory in the presence or absence of SS-31 (see supporting Results H for model description). B, effect of SS peptides on Ca^2+ accumulation at model membrane interfaces. […] C and D, effect of SS peptides on mitochondrial Ca^2+ uptake. C, time courses of TMRM or CG-5N emission in mitochondrial suspensions with ETH-129 in the absence (top) or presence (bottom) of SS-31 following the addition of NADH (black arrowheads) and CaCl2 (open arrowheads). See Fig. S18A for experimental details. […] Spectral deconvolution yielded the indicated components (see Fig. S19, A and B), which were used to quantify the area ratios of L2/iso in F (values shown are means ± S.D. (error bars) (n = 3). G, respirometry analysis. Mitochondria (1 mg ml^−1) were treated in the absence or presence of SS-31 (54.4 μM) or CaCl2 (1 mM) as indicated and measured for state 2 respiration (n = 10–12 each).
First, we measured the effects of SS peptides on the accumulation of Ca^2+ in the interfacial region of model membranes. […] We reasoned that the binding of Ca^2+ to the headgroup region of anionic lipid bilayers would reduce the bulk Ca^2+ detected by the CG-5N probe, providing a direct readout of Ca^2+ accumulation at the membrane interface. […]

Consider `Cc1cc(O)cc(C)c1C[C@H](NC(=O)[C@H](N)CCCNC(=N)N)C(=O)N[C@@H](CCCCN)C(=O)N[C@@H](Cc1ccccc1)C(N)=O` [SS-31, D-Arg-2′6′-dimethyl-Tyr-Lys-Phe-NH2] (H-[dR][Dmt]KF-NH2), for which the “release of Ca2+ from membrane interface (CG-5N response)” value is “released Ca^2+ from the membrane interface in a dose-dependent manner”.
